The test has as its system BDF1 mice, P388 leukemia ip, median survival T/C. In words: NCI In Vivo Anticancer Drug Screen. Data for tumor model P388 Leukemia (intraperitoneal) in B6D2F1 (BDF1) mice. The conditions noted are these: endpoint: median survival time, higher = longer survival. The method, boiled down: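 Reported as T/C, where T is the survival measurement in dosed animals and C the same measurement in vehicle controls.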

The mark [1] stands for this setting: dose: 100.0 mg/kg/injection, schedule: Q04DX003 (ip), vehicle: saline with Tween-80.
[2] abbreviates: dose: 200.0 mg/kg/injection, schedule: Q04DX003 (ip), vehicle: saline with Tween-80.
Where [3] appears, read: dose: 400.0 mg/kg/injection, schedule: Q04DX003 (ip), vehicle: saline with Tween-80.
[4] abbreviates: dose: 100.0 mg/kg/injection, schedule: Q04DX003 (ip), vehicle: saline.
[5] abbreviates: dose: 200.0 mg/kg/injection, schedule: Q04DX003 (ip), vehicle: saline.
Where [6] appears, read: dose: 400.0 mg/kg/injection, schedule: Q04DX003 (ip), vehicle: saline.
Setting [7] is: dose: 100.0 mg/kg/injection, schedule: Q01DX009 (ip), vehicle: saline with Tween-80.
Setting [8] is: dose: 200.0 mg/kg/injection, schedule: Q01DX009 (ip), vehicle: saline with Tween-80.
The mark [9] stands for this setting: dose: 6.25 mg/kg/injection, schedule: Q01DX009 (ip), vehicle: saline with Tween-80.
Where [10] appears, read: dose: 12.5 mg/kg/injection, schedule: Q01DX009 (ip), vehicle: saline with Tween-80.
The mark [11] stands for this setting: dose: 25.0 mg/kg/injection, schedule: Q01DX009 (ip), vehicle: saline with Tween-80.
The mark [12] stands for this setting: dose: 50.0 mg/kg/injection, schedule: Q01DX009 (ip), vehicle: saline.
The mark [13] stands for this setting: dose: 50.0 mg/kg/injection, schedule: Q01DX009 (ip), vehicle: saline with Tween-80.
The mark [14] stands for this setting: dose: 50.0 mg/kg/injection, schedule: Q04DX003 (ip), vehicle: Klucel (hydroxypropylcellulose) (HPC).
Setting [15] is: dose: 100.0 mg/kg/injection, schedule: Q01DX009 (ip), vehicle: saline.
Where [16] appears, read: dose: 100.0 mg/kg/injection, schedule: Q01DX009 (ip), vehicle: Klucel (hydroxypropylcellulose) (HPC).
[17] abbreviates: dose: 200.0 mg/kg/injection, schedule: Q01DX009 (ip), vehicle: Klucel (hydroxypropylcellulose) (HPC).
Where [18] appears, read: dose: 200.0 mg/kg/injection, schedule: Q04DX003 (ip), vehicle: Klucel (hydroxypropylcellulose) (HPC).
Setting [19] is: dose: 25.0 mg/kg/injection, schedule: Q04DX003 (ip), vehicle: saline with Tween-80.

Several values for one entry are separate records, joined by “and”; a condition that tells them apart may be missing. Equal values may be shown once. Inconclusive results and toxic doses are left out.

With `CCCCNC(=O)Nc1ccc(N(C)C)cc1`, the T/C runs as follows: under setting [1], 90 % of control; under setting [2], 90 % of control; under setting [3], 100 % of control.

Turning to `Nc1ccc2c(-c3cccc([N+](=O)[O-])c3)cc(=O)[nH]c2n1`, the T/C reads like this: under setting [4], 88 % of control; under setting [5], 87 % of control; under setting [6], 87 % of control.

As for `COc1ccc(C(O)c2ccccc2C(=O)Nc2ccccc2)cc1` (stereo unspecified), the T/C is 90 % of control under setting [7] and 100 % of control under setting [8].

On to `CC(=O)Nc1ccc(S(=O)(=O)N/N=C\c2ccc(Cl)c(Cl)c2)cc1`, for which the T/C is, setting by setting: under setting [9], 99 % of control; under setting [10], 98 % of control; under setting [11], 96 % of control.

As for `O=C1c2ccccc2C(=O)c2c(O)c(N3CCOCC3)cc(O)c21`, the T/C (dose: 1.0 mg/kg/injection, schedule: Q01DX009 (ip), vehicle: water) was 121 % of control; the T/C (dose: 2.0 mg/kg/injection, schedule: Q01DX009 (ip), vehicle: water) is 104 % of control; the T/C (dose: 4.0 mg/kg/injection, schedule: Q01DX009 (ip), vehicle: water) is 104 % of control; the T/C (dose: 8.0 mg/kg/injection, schedule: Q01DX009 (ip), vehicle: water) was 89 % of control; the T/C (dose: 16.0 mg/kg/injection, schedule: Q01DX009 (ip), vehicle: water) was 111 % of control; the T/C (dose: 32.0 mg/kg/injection, schedule: Q01DX009 (ip), vehicle: water) is 113 % of control. The T/C under setting [12] was 90 % of control.

Consider `CC(C)(C)CC(C)(C)c1ccc(O)cc1O`, for which the T/C is 120 % of control under setting [11] and 95 % of control under setting [13].

Regarding `NC1=NNC(N)=NN1`, the T/C (dose: 12.5 mg/kg/injection, schedule: Q01DX009 (ip), vehicle: saline) was 94 % of control; the T/C (dose: 25.0 mg/kg/injection, schedule: Q01DX009 (ip), vehicle: saline) was 100 % of control; the T/C under setting [12] was 96 % of control.

As to `CCN1CCN(Cc2ccccc2)C(CCl)C1` (stereo unspecified), the T/C (dose: 12.5 mg/kg/injection, schedule: Q04DX003 (ip), vehicle: Klucel (hydroxypropylcellulose) (HPC)) was 100 % of control; the T/C (dose: 25.0 mg/kg/injection, schedule: Q04DX003 (ip), vehicle: Klucel (hydroxypropylcellulose) (HPC)) was 100 % of control; the T/C under setting [14] is 100 % of control.

Regarding `CC1CCCCN1CC(Cl)Cl` (stereo unspecified), the T/C reads like this: under setting [12], 122 % of control; (dose: 50.0 mg/kg/injection, schedule: Q04DX003 (ip), vehicle: saline) 109 % of control; under setting [15], 150 % of control; under setting [4], 104 % of control; under setting [5], 122 % of control.

For the compound `O=C(/C=C/c1c(Cl)cccc1Cl)c1ccc(Cl)cc1`, the T/C was 86 % of control under setting [7]; 90 % of control under setting [8]; 104 % of control (dose: 400.0 mg/kg/injection, schedule: Q01DX009 (ip), vehicle: saline with Tween-80).

For the compound `CC1(C(N)=O)OCCO1`, the T/C under setting [4] is 100 % of control, the T/C under setting [5] was 95 % of control and the T/C under setting [6] is 95 % of control.

With `CCN(CC)C(=O)c1ccc([N+](=O)[O-])cc1`, the T/C (dose: 50.0 mg/kg/injection, schedule: Q01DX009 (ip), vehicle: Klucel (hydroxypropylcellulose) (HPC)) is 103 % of control; the T/C under setting [14] was 95 % of control; the T/C under setting [16] was 100 % of control; the T/C under setting [17] is 89 % of control; the T/C under setting [18] is 104 % of control.

In the case of `CC1(C#N)c2ccccc2C=CN1C(=O)c1ccccc1` (stereo unspecified), the T/C reads like this: under setting [16], 90 % of control; (dose: 100.0 mg/kg/injection, schedule: Q04DX003 (ip), vehicle: Klucel (hydroxypropylcellulose) (HPC)) 100 % of control; under setting [17], 100 % of control; under setting [18], 95 % of control; (dose: 400.0 mg/kg/injection, schedule: Q01DX009 (ip), vehicle: Klucel (hydroxypropylcellulose) (HPC)) 100 % of control; (dose: 400.0 mg/kg/injection, schedule: Q04DX003 (ip), vehicle: Klucel (hydroxypropylcellulose) (HPC)) 100 % of control.

For the compound `CCOc1ccc(Br)cc1/C=N/NS(=O)(=O)c1ccc(C)cc1`, the T/C is 109 % of control under setting [1]; 120 % of control (dose: 176.0 mg/kg/injection, schedule: Q04DX003 (ip), vehicle: saline with Tween-80); 109 % of control under setting [2]; 120 % of control (dose: 264.0 mg/kg/injection, schedule: Q04DX003 (ip), vehicle: saline with Tween-80); 120 % of control under setting [3].

Consider `CCN(CC)CC(C)OC(=O)c1ccc(N)cc1` (stereo unspecified), for which the T/C was 92 % of control (dose: 33.0 mg/kg/injection, schedule: Q01DX009 (ip), vehicle: saline); 100 % of control under setting [12]; 104 % of control (dose: 75.0 mg/kg/injection, schedule: Q01DX009 (ip), vehicle: saline); 100 % of control under setting [15]; 95 % of control under setting [4]; 86 % of control under setting [5].

On to `C=C(C)C(O)C(O)c1cc2ccc(=O)oc2cc1OC` (stereo unspecified), for which the T/C reads like this: (dose: 8.75 mg/kg/injection, schedule: Q01DX009 (ip), vehicle: carboxymethylcellulose (CMC)) 96 % of control; (dose: 17.5 mg/kg/injection, schedule: Q01DX009 (ip), vehicle: carboxymethylcellulose (CMC)) 88 % of control.

Turning to `CCNC(C)(C)C(O)c1ccc(Cl)s1` (stereo unspecified), the T/C was 105 % of control under setting [11]; 102 % of control under setting [19]; 88 % of control under setting [13]; 100 % of control (dose: 50.0 mg/kg/injection, schedule: Q04DX003 (ip), vehicle: saline with Tween-80); 88 % of control under setting [7]; 86 % of control and 101 % of control under setting [1]. The T/C runs as follows: under setting [2], 88 % of control and 104 % of control; under setting [3], 92 % of control.

Turning to `O=C(C=C(C(F)(F)F)C(F)(F)F)c1cc(Cl)ccc1Cl`, the T/C is, setting by setting: (dose: 3.12 mg/kg/injection, schedule: Q01DX009 (ip), vehicle: saline with Tween-80) 95 % of control; under setting [9], 95 % of control; (dose: 7.0 mg/kg/injection, schedule: Q04DX003 (ip), vehicle: saline with Tween-80) 112 % of control; (dose: 11.0 mg/kg/injection, schedule: Q04DX003 (ip), vehicle: saline with Tween-80) 120 % of control; under setting [10], 103 % of control and 108 % of control; (dose: 12.5 mg/kg/injection, schedule: Q04DX003 (ip), vehicle: saline with Tween-80) 115 % of control. The T/C by setting is: (dose: 16.5 mg/kg/injection, schedule: Q04DX003 (ip), vehicle: saline with Tween-80) 120 % of control; under setting [19], 113 % of control; (dose: 37.5 mg/kg/injection, schedule: Q04DX003 (ip), vehicle: saline with Tween-80) 121 % of control.

Turning to `[N-]=[N+]=NC(=O)C1(Br)CCC2c3ccccc3C([N+](=O)[O-])(C1)c1ccccc12` (stereo unspecified), the T/C reads like this: under setting [4], 95 % of control; under setting [5], 100 % of control; under setting [6], 109 % of control.

With `O=C(Cc1ccc(F)cc1)c1ccccc1`, the T/C runs as follows: under setting [1], 88 % of control; under setting [2], 111 % of control; under setting [3], 105 % of control.

Turning to `CCOc1cc(/C=N\Nc2nnc(C)n2N)c(C)cc1N(CCCl)CCCl`, the T/C runs as follows: (dose: 5.5 mg/kg/injection, schedule: Q01DX009 (ip), vehicle: saline with Tween-80) 200 % of control; (dose: 8.3 mg/kg/injection, schedule: Q01DX009 (ip), vehicle: saline with Tween-80) 209 % of control; under setting [10], 272 % of control; (dose: 18.7 mg/kg/injection, schedule: Q01DX009 (ip), vehicle: saline with Tween-80) 195 % of control; (dose: 40.0 mg/kg/injection, schedule: Q04DX003 (ip), vehicle: saline) 204 % of control; (dose: 50.0 mg/kg/injection, schedule: Q04DX003 (ip), vehicle: saline sonified) 168 % of control. Besides, under “dose: 100.0 mg/kg/injection, schedule: Q04DX003 (ip), vehicle: saline sonified”, the T/C is 86 % of control.

Values taken from PubChem BioAssay AID328 (DTP/NCI, 2004).
